One series concerns FVII gene. The series can be described thus: Hepatic FVII gene knockdown in CCl4 hepatic fibrosis mouse model. The conditions noted are these: male Balb/c mouse, Col1a1 siRNA + FVII siRNA 0.1 + 0.1 mg/kg intravenous, liver 4 days after administration, qPCR normalized with GAPDH. Type of series: in vivo. As for the experimental part: (§1) The Col1a1 siRNA-encapsulated lipid nanoparticle was administered at 0.1 mg/kg into the orbital plexus of the vein of each 8-week-old male Balb/c mouse. 3 hours later, CCl4 mixed with corn oil was orally administered at a dose of 0.1 mL/kg (10 mL/kg) by forced single-dose administration (n=6 in each group). 4 days after the administration of the siRNA-encapsulated lipid nanoparticle, the liver was collected from the mouse euthanized under anesthesia, followed by gene expression analysis by quantitative PCR. The Col1a1 gene expression level and the FVII gene expression level were normalized with the expression level of GAPDH. The amount of decrease in Col1a1 gene expression as compared with a siRNA non-administration group was regarded as the rate of knockdown. In mice intravenously given the siRNA-encapsulated lipid nanoparticle formed using the compound of the present invention, the knockdown of the activated stellate cell marker gene Col1a1 gene was strongly observed, as compared with the rate of knockdown of the hepatic parenchymal cell marker gene FVII.

The test system of series [1] is human colorectal cancer-derived cell line HCT116. The series can be described thus: Transfection of cultured cell with mRNA (luciferase luminescence). Type of series: cell-based. The conditions noted are these: 10 ng luciferase mRNA, 24 hours. As for the experimental part: A human colorectal cancer-derived cell line HCT116 was cultured at a cell density of 6000 cells/well in a 96-well plate. 24 hours later, 10 μl of the lipid particle containing 10 ng of luciferase mRNA was added to the medium. 24 hours after the addition of mRNA, a reagent of Picagene LT2.0 kit (Toyobo Co., Ltd.) was added to the culture plate of HCT116. The luminescence (count per sec (cps)) of luciferase was measured using a luminescence plate reader EnVision (PerkinElmer, Inc.).

Series [2] is described as follows: Analysis of Col1a1 siRNA + FVII siRNA-encapsulated lipid nanoparticle (Production Example 3). Format: physicochemical. The conditions noted are these: for Rate of encapsulation / Particle size: Col1a1 siRNA + FVII siRNA lipid nanoparticle; for Particle size: cationic lipid:DPPC:cholesterol:GS-020=60:10.6:28:1.4; for Col1a1 siRNA + FVII siRNA concentration: lipid nanoparticle dispersion after dialysis and filtration. The text has this: (§2) The particle size of the lipid particle (in the composition) can be measured by a known approach. For example, the particle size can be calculated as a Z-average particle size by the cumulant analysis of an autocorrelation function using a particle size measurement apparatus Zetasizer Nano ZS (Malvern Instruments) based on a dynamic light scattering measurement technique. The particle size (average particle size) of the lipid particle (in the composition) is, for example, 10 to 200 nm, preferably 60 to 170 nm.
(§3) The concentration and rate of encapsulation of the nucleic acid (e.g., siRNA or mRNA) in the composition of the present invention can be measured by a known approach. For example, the nucleic acid is fluorescently labeled using Quant-iT™ RiboGreen® (Invitrogen Corp.), and the fluorescence intensity can be measured to determine the concentration and the rate of encapsulation. The concentration of the nucleic acid in the composition can be calculated using a calibration curve prepared from aqueous nucleic acid solutions having known concentrations. The rate of encapsulation can be calculated on the basis of the difference in fluorescence intensity between the presence and absence of addition of Triton-X 100 (surfactant for disrupting the lipid particle). The concentration of the nucleic acid in the composition refers to the total concentration of a nucleic acid encapsulated in the lipid particle and an unencapsulated nucleic acid. The rate of encapsulation refers to the ratio of the nucleic acid encapsulated in the lipid particle to all nucleic acids in the composition.
A lipid mixture (cationic lipid:DPPC:cholesterol:GS-020=60:10.6:28:1.4, molar ratio) was dissolved in 90% of EtOH and 10% of a 25 mM acetate buffer solution (pH 4.0) to obtain a 7.4 mg/ml lipid solution. siRNA against collagen 1a1 (Col1a1) and siRNA against factor VII (FVII) were dissolved in equal weights in a 25 mM acetate buffer solution (pH 4.0) to obtain a 0.15 mg/ml nucleic acid solution. The sequences of Col1a1 siRNA and FVII siRNA were quoted from Hepatology, […], No. 4, 2015, and Silence, Vol. 1, No. 16, 2010, respectively. The obtained lipid solution and nucleic acid solution were mixed at a flow rate ratio of 1 ml/min:5 ml/min using a microfluidic mixing apparatus NanoAssemblr (Precision NanoSystems Inc.) to obtain a dispersion containing a composition. The obtained dispersion was dialyzed against water at room temperature for 1 hour and against PBS at room temperature for 18 hours using Slyde-A-Lyzer (molecular weight cutoff: 20 K, Thermo Fischer Scientific Inc.). Subsequently, the dialysate was filtered through a 0.2 μm syringe filter (Iwaki) and preserved at 4° C. The siRNA-encapsulated lipid nanoparticle was very favorably formed using the compound of the present invention.

The subject of the next series is Col1a1 gene. Briefly: Hepatic collagen 1a1 gene knockdown in CCl4 hepatic fibrosis mouse model. The conditions noted are these: male Balb/c mouse, Col1a1 siRNA + FVII siRNA 0.1 + 0.1 mg/kg intravenous, liver 4 days after administration, qPCR normalized with GAPDH, vs siRNA non-administration group. Format: in vivo. As for the experimental part:
as §1

A short description of series [3]: Analysis of luciferase mRNA-encapsulated lipid nanoparticle (Production Example 2). Type of series: physicochemical. The conditions noted are these: for Rate of encapsulation / Average particle size: luciferase mRNA lipid nanoparticle; for mRNA concentration: luciferase mRNA lipid nanoparticle dispersion after dialysis and filtration; for Average particle size: cationic lipid:DPPC:cholesterol:GS-020=60:10.6:28:1.4.
From the text: as §2, §3
A lipid mixture (cationic lipid:DPPC:cholesterol:GS-020=60:10.6:28:1.4, molar ratio) was dissolved in 90% of EtOH and 10% of water to obtain an 8.5 mg/ml lipid solution. Luciferase mRNA (TriLink BioTechnologies, Inc.) was dissolved in a 10 mM 2-morpholinoethanesulfonic acid (MES) buffer solution (pH 4.0) to obtain a 0.22 mg/ml nucleic acid solution. The obtained lipid solution and nucleic acid solution were mixed at a flow rate ratio of 3 ml/min:6 ml/min at room temperature using NanoAssemblr apparatus (Precision NanoSystems Inc.) to obtain a dispersion containing a composition. The obtained dispersion was dialyzed against water at room temperature for 1 hour and against PBS at 4° C. for 48 hours using Slyde-A-Lyzer (molecular weight cutoff: 20 K, Thermo Fischer Scientific Inc.). Subsequently, the dialysate was filtered through a 0.2 μm syringe filter (Iwaki) and preserved at 4° C.

Consider ten molecules from patent US12479791B2, “Cationic lipid” (Takeda Pharmaceutical Company Limited, priority 2018, dated 2025).

`CCCCCCCC(=O)OCC(COC(=O)CCCCCCC)(COC(=O)CCCCN(C)C)COC(=O)CCC(CCCCCCC)CCCCCCC` [Example 1, 3-((5-(Dimethylamino)pentanoyl)oxy)-2,2-bis((octanoyloxy)methyl)propyl 4-heptylundecanoate]: the “Rate of FVII knockdown” value in the series with FVII gene is 0%. Moreover, the “Average luminescence (cps) of 3 wells” value in series [1] (Table 10 (PBS control 293)) is given as 110733 cps. In series [2], the Rate of encapsulation was 98%, the Particle size was 111 nm and the “Col1a1 siRNA + FVII siRNA concentration” value was found to be 128 µg/mL. Also, the “Rate of Col1a1 knockdown” value in the series on Col1a1 gene was determined as 86%. Further, in series [3], the Rate of encapsulation stood at 96%, the mRNA concentration came to 145 µg/mL and the Average particle size was determined as 112 nm.

Take `CCCCCCCC(=O)OCC(COC(=O)CCCCCCC)(COC(=O)CCCCN(C)C)COC(=O)CCC(CCCCC)C(CCCCC)CCCCC` (centres unmarked) [Example 13, 3-((5-(Dimethylamino)pentanoyl)oxy)-2,2-bis((octanoyloxy)methyl)propyl 4,5-dipentyldecanoate]: the “Rate of FVII knockdown” value in the series with FVII gene was found to be 15%. The “Average luminescence (cps) of 3 wells” value in series [1] (Table 9 (PBS control 80)) stood at 269467 cps. Further, in series [2], the Rate of encapsulation was 97%, the Particle size is 103 nm and the “Col1a1 siRNA + FVII siRNA concentration” value turned out to be 122 µg/mL. For the same molecule, in the series with Col1a1 gene, the “Rate of Col1a1 knockdown” value turned out to be 86%. Moreover, in series [3], the Rate of encapsulation is on record as 99%, the mRNA concentration stood at 155 µg/mL and the Average particle size was 119 nm.

In the case of `CCCCCCCC(=O)OCC(COC(=O)CCCCCCC)(COC(=O)CCC(CCCC)C(CCCC)CCCC)COC(=O)NCCCCN(C)C` (centres unmarked) [Example 18, 3-(((4-(Dimethylamino)butyl)carbamoyl)oxy)-2,2-bis((octanoyloxy)methyl)propyl 4,5-dibutylnonanoate], in series [1] (Table 10 (PBS control 293)), the “Average luminescence (cps) of 3 wells” value came out at 12813 cps. In series [3], the Rate of encapsulation is listed as 99%, the mRNA concentration stood at 103 µg/mL and the Average particle size was found to be 77 nm.

Regarding `CCCCCCCC(=O)OCC(COC(=O)CCCCCCC)(COC(=O)CCCCCN(C)C)COC(=O)CCC(CCCC)C(CCCC)CCCC` (centres unmarked) [Example 11, 3-((6-(Dimethylamino)hexanoyl)oxy)-2,2-bis((octanoyloxy)methyl)propyl 4,5-dibutylnonanoate], the “Rate of FVII knockdown” value in the series with FVII gene turned out to be 21%. Besides, the “Average luminescence (cps) of 3 wells” value in series [1] (Table 8 (PBS control 1293)) stood at 572560 cps. In series [2], the Rate of encapsulation amounted to 97%, the Particle size is given as 91 nm and the “Col1a1 siRNA + FVII siRNA concentration” value was determined as 320 µg/mL. In addition, the “Rate of Col1a1 knockdown” value in the series with Col1a1 gene is reported as 77%. In series [3], this molecule showed a Rate of encapsulation of 93%, a mRNA concentration of 78 µg/mL and an Average particle size of 122 nm.

With `CCCCCCCC(=O)OCC(COC(=O)CCCCCCC)(COC(=O)CCCN(C)C)COC(=O)CCC(CCCC)C(CCCC)CCCC` (centres unmarked) [Example 19, 3-((4-(Dimethylamino)butanoyl)oxy)-2,2-bis((octanoyloxy)methyl)propyl 4,5-dibutylnonanoate], in the series on FVII gene, the “Rate of FVII knockdown” value came to 31%. In series [2], the Rate of encapsulation stood at 96%, the Particle size amounted to 89 nm and the “Col1a1 siRNA + FVII siRNA concentration” value was found to be 112 µg/mL. Moreover, in the series on Col1a1 gene, the “Rate of Col1a1 knockdown” value came out at 71%.

On to `CCCCCC(=O)OCC(COC(=O)CCCCC)(COC(=O)CCCCN(C)C)COC(=O)CCC(CCCCC)C(CCCCC)CCCCC` (centres unmarked) [Example 12, 3-((5-(Dimethylamino)pentanoyl)oxy)-2,2-bis((hexanoyloxy)methyl)propyl 4,5-dipentyldecanoate], for which the “Average luminescence (cps) of 3 wells” value in series [1] (Table 9 (PBS control 80)) was 62587 cps. For the same molecule, in series [3], the Rate of encapsulation is recorded as 93%, the mRNA concentration worked out at 160 µg/mL and the Average particle size was found to be 134 nm.

As to `CCCCCCCC(=O)OCC(COC(=O)CCCCCCC)(COC(=O)CCCCN(C)C)COC(=O)CCC(CCC)C(CCC)CCC` (centres unmarked) [Example 17, 3-((5-(Dimethylamino)pentanoyl)oxy)-2,2-bis((octanoyloxy)methyl)propyl 4,5-dipropyloctanoate], the “Average luminescence (cps) of 3 wells” value in series [1] (Table 10 (PBS control 293)) stood at 7987 cps. In series [3], this molecule returned a Rate of encapsulation of 87%, a mRNA concentration of 116 µg/mL and an Average particle size of 152 nm.

On to `CCCCCC(=O)OCC(COC(=O)CCCCC)(COC(=O)CCCCN(C)C)COC(=O)CCC(CCCC)C(CCCC)CCCC` (centres unmarked) [Example 15, 3-((5-(Dimethylamino)pentanoyl)oxy)-2,2-bis((hexanoyloxy)methyl)propyl 4,5-dibutylnonanoate], for which, in series [1] (Table 10 (PBS control 293)), the “Average luminescence (cps) of 3 wells” value is 3293 cps. Also, in series [3], the Rate of encapsulation stood at 99%, the mRNA concentration was found to be 127 µg/mL and the Average particle size is 164 nm.

Regarding `CCCCCCCC(=O)OCC(COC(=O)CCCCN(C)C)(COC(=O)CC(CCCCC)CCCCC)COC(=O)CC(CCCCC)CCCCC` [Example 9], in series [1] (Table 7 (PBS control 413)), the “Average luminescence (cps) of 3 wells” value is given as 63493 cps. Also, in series [3], the Rate of encapsulation was 94%, the mRNA concentration was 77 µg/mL and the Average particle size is 96 nm.

In the case of `CCCCCCCC(=O)OCC(COC(=O)CCCCCN(C)C)(COC(=O)C(CCCCCC)CCCCCC)COC(=O)C(CCCCCC)CCCCCC` [Example 8], the “Average luminescence (cps) of 3 wells” value in series [1] (Table 6 (PBS control 1040)) is on record as 381693 cps. In series [3], this molecule registered a Rate of encapsulation of 91%, a mRNA concentration of 97 µg/mL and an Average particle size of 103 nm.
